The values that follow come from patent US12390461B2, “Modulators of RAR-related orphan receptors (RORs)” (11949098 CANADA INC., priority 2018, dated 2025).

This test relates to Th17 polarization of human peripheral blood mononuclear cells. Nature of the test: Th17 polarization assay (IL-17A positive cells by flow cytometry). Type of test: cell-based. Particulars: PBMC, 10 nM compound, 48 hours, triplicates, average of 50% over the listed compounds, p<0.05, read-out: inhibition of the polarization of Th17 cells (percentage of IL17A positive cells relative to total CD4 T cells). The source says: This assay measures the phenotypic effects of the compounds on the production of interleukin 17A (IL-17A). IL-17A genes are regulated by ROR response elements (ROREs). Compounds that bind to ROR (LBD) can inhibit the binding of RORγ to ROREs DNA site. Compounds can also reduce the effect of the binding which is enhanced by the binding of the co-activator protein.
Peripheral blood mononuclear cells were isolated by density gradient centrifugation. The principle of this method is that components of the blood have different densities and can be separated according to their relative density. […] This medium is denser than lymphocytes, monocytes, and platelets and they remain about it, but less dense than granulocytes and erythrocytes, which will drop below it. […] Four layers were form, each containing different cell types—the uppermost layer contain containing plasma was removed by pipetting. PBMCs layer and is a characteristically white and cloudy “blanket” was gently removed using a 10 ml pipette and added to warm medium or PBS (1:3) to wash off any remaining platelets and centrifuged at 400×g for 10 minutes. The pelleted cells were counted, and the percentage viability estimated using Trypan blue staining. Cells were frozen for long-term storage.
To preserve PBMCs at ultra-low temperatures in liquid nitrogen, dimethyl sulfoxide (DMSO) was used as a cryoprotectant to reduce the formation of ice crystals and prevent cell damage. To freeze, freshly isolated PBMCs are resuspended to 5×10^6 cells/mL in freezing medium containing 10% DMSO and 90% fetal bovine serum (FBS) and were placed inside a freezing container at −80° C. overnight to allow gradual and even cooling. The following day, samples were moved to a liquid nitrogen tank for long-term storage.
500 ml bottle of RPMI at 4° C. was opened in a biological safety cabinet. Half of the media was transferred to a 500 ml 0.22 um bottle top filter (with the vacuum turned off). 59 ml filtered heat inactivated fetal bovine serum (FBS), 6 ml penicillin-streptomycin solution (100×), 6.0 ml of L-glutamine (100×), 6.0 ml MEM non-essential amino acids 100×, 6.0 ml of sodium pyruvate were added and the volume was brought up to 500 ml by adding the RPMI. Culture media were stored in 4° C. and used for duration of two weeks.
PBMCs were thawed carefully to avoid loss of cell viability and functionality. Samples are removed from liquid nitrogen and placed on ice, after which they were thawed in a 37° C. water bath. Once there is a small crystal of ice left in the bottom on the tubes, 500 μL warm complete RPMI medium supplemented with 10% FBS, 1% penicillin-streptomycin, and L-glutamine was added dropwise. The cells were then transferred to Falcon tubes containing 10 mL warm medium and centrifuged for 10 minutes at 400×g to wash off the toxic DMSO. This wash step was repeated, and the cell pellet was then resuspended in medium to count as before. Once thawed, PBMCs was rested overnight to remove any apoptotic cell this increases viability and improves functionality and involves incubating the freshly thawed PBMCs in supplemented medium for approximately 18 hours. After this resting period, cells were washed to be used in culture.
Culture medium was changed every other day for the whole duration. Compounds were added to the polarized cells at day 12 for 48 hours. At measurement day, CD3/CD28 beads were removed and cells were treated with cell stimulation cocktail for 5 hours at the end of 48 hours incubation. Plates were centrifuged at 400×g for 10 minutes. Supernatant was collected for further testing and cells were resuspended in 1×PBS and washed twice at 400×g before staining for surface and intracellular markers.
The dye was used in 1:1000 concentration in 1×PBS. The cells were incubated in dye solution for 30 minutes in 4° C.
In general terms: A flow cytometer gives signals particle by particle.
For the molecule `CSc1ncc(Cl)c(C(=O)Nc2sc3c(c2C(=O)NCc2ccccc2)CCCC3)n1` [Compound 2, N-(3-(benzylcarbamoyl)-4,5,6,7-tetrahydrobenzo[b]thiophen-2-yl)-5-chloro-2-(methylthio)pyrimidine-4-carboxamide], the inhibition (in general, the change of the read-out against control, counted positive when it falls) at 0.01 µM fell in the range of 30 to 70%.
Next, `CSc1ncc(Cl)c(C(=O)Nc2sc3c(c2C(=O)NC2CCS(=O)(=O)C2)CCC(C)C3)n1` (stereo not drawn) [Compound 3, 5-chloro-N-(3-{[(1,1-dioxidotetrahydro-3-thienyl)amino]-carbonyl}-6-methyl-4,5,6,7-tetrahydro-1-benzothien-2-yl)-2-(methylthio)-4-pyrimidine-carboxamide]: 30 to 70%; `CCC1CCc2c(sc(NC(=O)c3ccnn3C)c2C(=O)Nc2ccccc2C)C1` (stereo not drawn) [Compound 4, N-(6-ethyl-3-{[(2-methylphenyl)amino]carbonyl}-4,5,6,7-tetrahydro-1-benzothien-2-yl)-1-methyl-1H-pyrazole-5-carboxamide]: 30 to 70%.
Turning to `CN1CCN(C(=O)c2c(NC(=O)c3ccccc3F)sc3c2CCC(C(C)(C)C)C3)CC1` (stereo not drawn) [Compound 5, N-{6-tert-butyl-3-[(4-methyl-1-piperazinyl)carbonyl]-4,5,6,7-tetrahydro-1-benzothien-2-yl}-2-fluorobenzamide], the inhibition at 0.01 µM lay within 30 to 70%.
In the case of `CC1CCc2c(sc(NC(=O)c3ccccc3F)c2C(=O)N2CCN(C)CC2)C1` (stereo not drawn) [Compound 6, 2-fluoro-N-{6-methyl-3-[(4-methyl-1-piperazinyl)carbonyl]-4,5,6,7-tetrahydro-1-benzothien-2-yl}benzamide], the inhibition at 0.01 µM is 30 to 70%.
Regarding `O=C(NCc1ccccc1)c1c(NC(=O)C(F)(F)F)sc2c1CCCC2` [Compound 7, N-benzyl-2-[(trifluoroacetyl)amino]-4,5,6,7-tetrahydro-1-benzothiophene-3-carboxamide], the inhibition at 0.01 µM lay within 30 to 70%.
Next, `Cc1ccnc(SCC(=O)Nc2sc3c(c2C(=O)NCc2ccccc2)CCCC3)n1` [Compound 8, N-benzyl-2-({[(4-methyl-2-pyrimidinyl)thio]acetyl}amino)-4,5,6,7-tetrahydro-1-benzothiophene-3-carboxamide]: 30 to 70%; `O=C(CN1CCCCC1)Nc1sc2c(c1C(=O)NCc1ccccc1)CCCC2` [Compound 9, N-benzyl-2-[(1-piperidinylacetyl)amino]-4,5,6,7-tetrahydro-1-benzothiophene-3-carboxamide]: 30 to 70%.
Next, `CN1CCN(CC(=O)Nc2sc3c(c2C(=O)NCc2ccccc2)CCCC3)CC1` [Compound 10, N-benzyl-2-{[(4-methyl-1-piperazinyl)acetyl]amino}-4,5,6,7-tetrahydro-1-benzothiophene-3-carboxamide]: 30 to 70%; `CC1CCN(CC(=O)Nc2sc3c(c2C(=O)NCc2ccccc2)CCCC3)CC1` [Compound 11, N-benzyl-2-{[(4-methyl-1-piperidinyl)acetyl]amino}-4,5,6,7-tetrahydro-1-benzothiophene-3-carboxamide]: 30 to 70%.
With `CC1CCCN1C(=O)c1c(NC(=O)c2cccnc2)sc2c1CCCC2` (stereo not drawn) [Compound 12, N-(3-(2-methylpyrrolidine-1-carbonyl)-4,5,6,7-tetrahydro-benzo[b]thiophen-2-yl)nicotinamide] the figure was 30 to 70%; with `C[C@@H]1CCN(C(=O)c2c(NC(=O)c3cccnc3)sc3c2CCCC3)[C@H](C)C1` [Compound 13, N-(3-((2R,4R)-2,4-dimethylpiperidine-1-carbonyl)-4,5,6,7-tetrahydrobenzo[b]thiophen-2-yl)nicotinamide], 30 to 70%; with `CCC1CCN(C(=O)c2c(NC(=O)c3cccnc3)sc3c2CCCC3)C1` (stereo not drawn) [Compound 15, N-(3-(3-ethylpyrrolidine-1-carbonyl)-4,5,6,7-tetrahydro-benzo[b]thiophen-2-yl)nicotinamide], 30 to 70%.
As for `Cn1ccnc1SCC(=O)Nc1sc2c(c1C(=O)NCc1ccccc1)CCCC2` [Compound 16, N-benzyl-2-(2-((1-methyl-1H-imidazol-2-yl)thio)acetamido)-4,5,6,7-tetrahydrobenzo[b]thiophene-3-carboxamide], the inhibition at 0.01 µM was in the range of 30 to 70%.
For the molecule `Cn1cnc(CNC(=O)c2c(NC(=O)c3cccnc3)sc3c2CCCC3)n1` [Compound 19, N-(3-(((1-methyl-1H-1,2,4-triazol-3-yl)methyl)carbamoyl)-4,5,6,7-tetrahydrobenzo[b]thiophen-2-yl)nicotinamide], the inhibition at 0.01 µM lay in the range of 30 to 70%.
As to `C[C@@H](C#N)NC(=O)c1c(NC(=O)c2cccnc2)sc2c1CCCC2` [Compound 20, (S)—N-(3-((1-cyanoethyl)carbamoyl)-4,5,6,7-tetrahydro-benzo[b]thiophen-2-yl)nicotinamide], the inhibition at 0.01 µM lay within 30 to 70%.
On to `O=C(Nc1sc2c(c1C(=O)c1ccccc1)CCCC2)c1cnccn1` [Compound 22, N-(3-benzoyl-4,5,6,7-tetrahydrobenzo[b]thiophen-2-yl)pyrazine-2-carboxamide], for which the inhibition at 0.01 µM was in the range of 30 to 70%.
With `Cc1cnc(S(C)(=O)=O)nc1C(=O)Nc1sc2c(c1C(=O)c1ccccc1)CCCC2` [Compound 23, N-(3-benzoyl-4,5,6,7-tetrahydrobenzo[b]thiophen-2-yl)-5-methyl-2-(methylsulfonyl)pyrimidine-4-carboxamide] the figure was 30 to 70%.
